Experimental data from patent US9556169B2, “Compounds and compositions for the treatment of parasitic diseases” (NOVARTIS AG, priority 2012, dated 2017).
Read-outs that look alike come from different tables or passages of the source.

Columns and labels:
[1] = tested on: Plasmodium yoelii (17XNL) sporozoites; assay: Liver stage P. yoelii sporozoite invasion assay in HepG2-A16-CD81EGFP cells; format: cell-based
Description: Assay for Proliferation of Parasite in Infected Liver Cells
Compounds of the invention can be assayed to measure their capacity to inhibit proliferation of parasites in liver cells. The proliferation is quantified by determine the number of infected cells by immunofluorescence.
Due to the difficulty of successfully infecting immortalized human liver cell lines with the human malaria sporozoites (liver-stage parasite), rodent malaria sporozoites from Plasmodium yoelii (17XNL) and P. berghei (ANKA) are the preferred surrogate. Sporozoites are obtained from Anopheles stephensi mosquitoes supplied by the New York University Insectary, which ships the malaria-infected mosquitoes 10-13 days following the ingestion of an infective blood meal.
A transgenic HepG2 cell line expressing the tetraspanin CD81 receptor (HepG2-A16-CD81^EGFP) is used to increase the infectivity rate of rodent-malaria sporozoites into human cells. HepG2-A16-CD81^EGFP cells are stably transformed to express a GFP-CD81 fusion protein. A continuous in vitro culture of this line was maintained at 37° C. in 4% CO2 in complete media (CM) which contains: DMEM (Invitrogen, Carlsbad, USA) supplemented with 10% FCS, 0.29 mg/ml glutamine, 100 units penicillin and 100 μg/ml streptomycin (SigmaAldrich, USA).
Liver Stage P. yoelii Sporozoite Invasion Assay
Twenty to twenty-six hours prior to sporozoite infection, 7.5×10^3 HepG2-A16-CD81^EGFP cells are seeded into 384-well plates (Aurora 384 IQ-EB black plates with clear bottoms; 50 μl of 1.5×10^5 cells/ml in CM). These plates are incubated at 37° C. with 4% CO2 overnight. Two hours prior to infection, 50 nl of compound dissolved in DMSO (0.1% final DMSO concentration per well) were transferred with a PinTool (GNF Systems) into the assay plates (10 μM final concentration). A 1:3 serial dilution of atovaquone (10 μM at the highest final concentration) and wells treated only with DMSO were used as positive and negative controls, respectively.
Freshly dissected salivary glands from infected mosquitoes were homogenized in a glass tissue grinder, filtered twice through Nylon cell strainers (40 μm pore size, BD Falcon) and counted using a hemocytometer. The assay plate with HepG2-A16-CD81^EGFP cells and compound were then infected with 8×10^3 sporozoitesper well and the plates are subjected to a centrifugal force of 650×g to pellet the sporozoites onto the liver cell monolayer. The assay plate is incubated at 37° C. for 2 hours to permit sporozoite invasion, then the media is aspirated from the media plate, and replaced with 50 μl CM (containing a 5× concentration of penicillin/streptomycin; 500 units penicillin and 0.5 mg streptomycin per ml) per well. 50 nl of compound is re-introduced by PinTool and the assay plate incubated for 48 hours at 37° C. before quantification of infected cells by immunofluorescence.
Atovaquone and uninfected wells were used as controls on each plate. Two replicate plates are tested for each assay.
After fixing the cells by addition of 12.5 μl of 20% solution of paraformaldehyde (EMS, Hatfield, USA) to each assay well (4% final formaldehyde concentration), membranes were permeabilized with 0.5% Triton-X-100 (Thermo Fisher Scientific) and EEFs were stained using a mouse polyclonal serum raised against the Plasmodium yoelii heat shock protein 70 (PyHSP70), a DyLight 649 goat anti-mouse IgG, Fc(gamma) fragment specific secondary antibody (Jackson Immuno Research, Cat#115-495-071) and the Hoechst 33342 nucleic acid dye (Invitrogen, Carlsbad, USA). Stained EEFs were then quantified using the Opera Confocal High Content Screening System (Perkin Elmer, Waltham, USA). Images were collected using a 20× objective lens (20×/0.45 NA, LWD Plan Fluor, Olympus) at a binning of 2, using a 365 nm Xeon arc lamp illumination to detect the Hoechst-labeled nuclei and 635 nm laser line to excite DyLight649-labeled parasites. The image resolution yielded was approximately 0.66 μm/pixel (˜0.43 μm 2/pixel). […]

[2] = tested on: P. falciparum (NF54 or 3D7 strain); assay: P. falciparum proliferation assay in infected human blood cells (SYBR Green); format: cell-based; conditions: Plasmodium falciparum
In short: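 Asexual NF54 or 3D7 parasites in O+ human erythrocytes (final 2.5% hematocrit, 0.3% parasitemia) exposed to compound for 72 h at 37 °C under 93% N2/4% CO2/3% O2. Lysis with SYBR Green I overnight at rt; fluorescence (ex 425/em 530 nm) tracks parasite DNA, giving EC50.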

[3] = read-out: EC50, P. yoelii Sporozoite Invasion Assay
[4] = read-out: EC50, P. falciparum Proliferation Assay
[5] = Erythrocyte, infected human erythrocytes, 72 hours, SYBR Green fluorescence, read-out: EC50 (nM), inhibitory efficacy in delaying P. falciparum proliferation in infected human blood cells
[6] = values without * in Table 2, HepG2-A16-CD81EGFP liver cells, 48 hours, immunofluorescence, read-out: EC50 (nM), P. yoelii Sporozoite Invasion Assay

Row | Compound | EC50 [1, 3] | EC50 [2, 4] | EC50 [2, 5] | EC50 [1, 6]
1 | CN(C(=O)c1ccn2ncc(-c3ccc(C(F)(F)F)cc3)c2c1)c1ccc(C#N)cc1 [Example 1, N-(4-cyanophenyl)-N-methyl-3-(4-(trifluoromethyl)phenyl)pyrazolo[1,5-a]pyridine-5-carboxamide] | < 10 nM |  |  | 
2 | CN(C(=O)c1ccn2ncc(-c3ccc(C(N)=O)cc3)c2c1)c1ccc(C#N)cc1 [Example 19, 3-(4-carbamoylphenyl)-N-(4-cyanophenyl)-N-methylpyrazolo[1,5-a]pyridine-5-carboxamide] | < 10 nM |  |  | 
3 | CN(C(=O)c1ccn2ncc(-c3ccc(C(N)=O)cc3)c2c1)c1ccc(C#N)cn1 [Example 32, 3-(4-carbamoylphenyl)-N-(5-cyanopyridin-2-yl)-N-methylpyrazolo[1,5-a]pyridine-5-carboxamide] | < 10 nM | < 5 nM |  | 
4 | CNC(=O)c1ccc(-c2cnn3ccc(C(=O)N(C)c4ccc(C#N)cn4)cc23)cc1 [Example 75, N-(5-cyanopyridin-2-yl)-N-methyl-3-(4-(methylcarbamoyl)phenyl)pyrazolo[1,5-a]pyridine-5-carboxamide] | < 10 nM | < 5 nM |  | 
5 | CCN(C(=O)c1ccn2ncc(-c3ccc(C(=O)NC)cc3)c2c1)c1ccc(C#N)cn1 [Example 90, N-(5-Cyanopyridin-2-yl)-N-ethyl-3-(4-(methylcarbamoyl)phenyl)pyrazolo[1,5-a]pyridine-5-carboxamide] |  |  | 8 nM | 39 nM
6 | CNC(=O)c1ccc(-c2cnn3ccc(C(=O)N(c4ccc(C#N)cn4)C(C)C)cc23)cc1 [Example 91, N-(5-cyanopyridin-2-yl)-N-isopropyl-3-(4-(methylcarbamoyl)phenyl)pyrazolo[1,5-a]pyridine-5-carboxamide] |  |  | 13 nM | 23 nM
7 | CNC(=O)c1ccc(-c2cnn3ccc(C(=O)N(c4ccc(C#N)cn4)C4CC4)cc23)cc1 [Example 93, N-(5-Cyanopyridin-2-yl)-N-cyclopropyl-3-(4-(methylcarbamoyl)phenyl)pyrazolo[1,5-a]pyridine-5-carboxamide] |  |  | 6 nM | 10 nM
8 | CNC(=O)c1ccc(-c2cnn3ccc(C(=O)N(C)c4ccc(C#N)cc4)cc23)cn1 [Example 97, N-(4-Cyanophenyl)-N-methyl-3-(6-(methylcarbamoyl)pyridin-3-yl)pyrazolo[1,5-a]pyridine-5-carboxamide] |  |  | 13 nM | 92 nM
9 | CN(C(=O)c1ccn2ncc(-c3cnc(Cl)c(N)c3)c2c1)c1ccc(C#N)cn1 [Example 98, 3-(5-Amino-6-chloropyridin-3-yl)-N-(5-cyanopyridin-2-yl)-N-methylpyrazolo[1,5-a]pyridine-5-carboxamide] |  |  | 19 nM | 2060 nM
10 | CNC(=O)c1ccc(-c2cnn3ccc(C(=O)N(C)c4ccc(Cl)cc4)cc23)cc1 [Example 99, N-(4-Chlorophenyl)-N-methyl-3-(4-(methylcarbamoyl)phenyl)pyrazolo[1,5-a]pyridine-5-carboxamide] |  |  | 1 nM | 15 nM
11 | CN(C(=O)c1ccn2ncc(-c3ccc(C(N)=O)cc3)c2c1)c1ccc(Cl)cc1 [Example 100, 3-(4-Carbamoylphenyl)-N-(4-chlorophenyl)-N-methylpyrazolo[1,5-a]pyridine-5-carboxamide] |  |  | 9 nM | 20 nM
12 | CN(C(=O)c1ccn2ncc(-c3ccc(C(=O)NCCO)cc3)c2c1)c1ccc(C#N)cn1 [Example 102, N-(5-Cyanopyridin-2-yl)-3-(4-((2-hydroxyethyl)carbamoyl)phenyl)-N-methylpyrazolo[1,5-a]pyridine-5-carboxamide] |  |  | 10 nM | 660 nM
13 | CNC(=O)c1ccc(-c2cnn3ccc(C(=O)N(C)c4ccc(C(F)(F)F)cc4)cc23)cc1 [Example 103, N-Methyl-3-(4-(methylcarbamoyl)phenyl)-N-(4-(trifluoromethyl)phenyl)pyrazolo[1,5-a]pyridine-5-carboxamide] |  |  | 3 nM | 62 nM
14 | CN(C(=O)c1ccn2ncc(-c3ccc(C(=O)NCCN)cc3)c2c1)c1ccc(C#N)cn1 [Example 104, 3-(4-((2-Aminoethyl)carbamoyl)phenyl)-N-(5-cyanopyridin-2-yl)-N-methylpyrazolo[1,5-a]pyridine-5-carboxamide] |  |  | 125 nM | 1200 nM
15 | CN(C(=O)c1ccn2ncc(-c3cnc(Cl)c(NS(C)(=O)=O)c3)c2c1)c1ccc(C#N)cn1 [Example 107, 3-(6-Chloro-5-(methylsulfonamido)pyridin-3-yl)-N-(5-cyanopyridin-2-yl)-N-methylpyrazolo[1,5-a]pyridine-5-carboxamide] |  |  | 10 nM | 180 nM
16 | CN(C(=O)c1ccn2ncc(-c3ccnc(N)c3)c2c1)c1ccc(C#N)cn1 [Example 108, 3-(2-Aminopyridin-4-yl)-N-(5-cyanopyridin-2-yl)-N-methylpyrazolo[1,5-a]pyridine-5-carboxamide] |  |  | 2470 nM | 472 nM
17 | CNC(=O)c1ccc(-c2cnn3ccc(C(=O)N(C)c4ccc(Cl)cc4)cc23)cn1 [Example 109, N-(4-Chlorophenyl)-N-methyl-3-(6-(methylcarbamoyl)pyridin-3-yl)pyrazolo[1,5-a]pyridine-5-carboxamide] |  |  | 19 nM | 62 nM
18 | CNC(=O)c1ccc(-c2cnn3ccc(C(=O)N(CCO)c4ccc(C#N)cc4)cc23)cc1 [Example 110, N-(4-Cyanophenyl)-N-(2-hydroxyethyl)-3-(4-(methylcarbamoyl)phenyl)pyrazolo[1,5-a]pyridine-5-carboxamide] |  |  | 54 nM | 253 nM
19 | CNC(=O)c1ccc(-c2cnn3ccc(C(=O)N(C)c4ccc(OCCN)cn4)cc23)cc1 [Example 111, N-(5-(2-Aminoethoxyl)pyridin-2-yl)-N-methyl-3-(4-(methylcarbamoyl)phenyl)pyrazolo[1,5-a]pyridine-5-carboxamide] |  |  | 6300 nM | > 10000 nM
20 | CNC(=O)c1ccc(-c2cnn3ccc(C(=O)N(c4ccc(C#N)cn4)C4CCC4)cc23)cc1 [Example 112, N-(5-Cyanopyridin-2-yl)-N-cyclobutyl-3-(4-(methylcarbamoyl)phenyl)pyrazolo[1,5-a]pyridine-5-carboxamide] |  |  | 4 nM | 9 nM
21 | CN(C(=O)c1ccn2ncc(-c3ccc(C(=O)NC4CCNCC4)cc3)c2c1)c1ccc(C#N)cn1 [Example 113, N-(5-Cyanopyridin-2-yl)-N-methyl-3-(4-(piperidin-4-ylcarbamoyl)phenyl)pyrazolo[1,5-a]pyridine-5-carboxamide] |  |  | 311 nM | 1650 nM
22 | CNCCNC(=O)c1ccc(-c2cnn3ccc(C(=O)N(C)c4ccc(C#N)cn4)cc23)cc1 [Example 114, N-(5-Cyanopyridin-2-yl)-N-methyl-3-(4-((2-(methylamino)ethyl)carbamoyl)phenyl)pyrazolo[1,5-a]pyridine-5-carboxamide] |  |  | 52 nM | 950 nM
23 | CN(C)CCNC(=O)c1ccc(-c2cnn3ccc(C(=O)N(C)c4ccc(C#N)cn4)cc23)cc1 [Example 115, N-(5-cyanopyridin-2-yl)-3-(4-((2-(dimethylamino)ethyl)carbamoyl)phenyl)-N-methylpyrazolo[1,5-a]pyridine-5-carboxamide] |  |  | 155 nM | 79 nM
